Where “and” joins values, the source holds several entries; their conditions need not be identical. Equal entries are not always repeated. Where two headings read alike, the source gives them in different places.
Test: Single dose pharmacokinetic study in mice (iv 4 mg/Kg, po 20 mg/Kg), plasma concentration post-dosing
Type: in vivo, mouse
Conditions: mouse
Protocol: This is advantageous leading to comparatively lower doses or less frequent administration. The procedure followed was: Male C57BL/6 mice were used at 7-9 weeks age with 3 animals per group. Mice were dosed with test compound using single intravenous bolus or oral gavage. Blood samples were taken via submandibular or saphenous vein for analysis of plasma concentrations of compound by LC-MS/MS at the following timepoints: IV (3 mice): 0.083, 0.25, 0.5, 1, 2, 4, 8 and 24 hours post dosing, PO (3 mice): 0.25, 0.5, 1, 2, 4, 8 and 24 hours post dosing. LC-MS/MS method for the quantitative determination of test compound in corresponding biological matrix was developed. […] The results are shown graphically in FIGS. 1A to 1C (MCC950) and FIGS. 2A to 2C (MCC7840).

[1] = IV 4 mg/Kg, individual mice M1-M3, 4 mg/kg
[2] = PO 20 mg/Kg, individual mice M4-M6, 20 mg/kg

CC(C)(O)c1coc(S(=O)(=O)NC(=O)Nc2c3c(cc4c2CCC4)CCC3)c1 [MCC_000950_016, N-((1,2,3,5,6,7-hexahydro-s-indacen-4-yl)carbamoyl)-4-(2-hydroxypropan-2-yl)furan-2-sulfonamide, reference compound]
AUC0-inf (male, C57BL/6, mouse, plasma, po, 20 mg/kg, PO 20 mg/Kg, mean of 3 mice, read-out: AUC0-inf, Mean PO): 126 µg·h/mL
AUC(0-t) (male, C57BL/6, mouse, plasma, po, 20 mg/kg, PO 20 mg/Kg, mean of 3 mice, read-out: AUC0-last, Mean PO): 125 µg·h/mL
Cmax (male, C57BL/6, mouse, plasma, po, 20 mg/kg, PO 20 mg/Kg, mean of 3 mice, read-out: Cmax, Mean PO): 35000 ng/mL
MRT inf (male, C57BL/6, mouse, plasma, po, 20 mg/kg, PO 20 mg/Kg, mean of 3 mice, read-out: MRT0-inf, Mean PO): 3.63 h
MRT last (male, C57BL/6, mouse, plasma, po, 20 mg/kg, PO 20 mg/Kg, mean of 3 mice, read-out: MRT0-last, Mean PO): 3.6 h
half-life (male, C57BL/6, mouse, plasma, po, 20 mg/kg, PO 20 mg/Kg, mean of 3 mice, read-out: T1/2, Mean PO (converted)): 2.39 h
Tmax (male, C57BL/6, mouse, plasma, po, 20 mg/kg, PO 20 mg/Kg, mean of 3 mice, read-out: Tmax, Mean PO): 0.333 h
Plasma concentration, IV Time 5 min (IV 4 mg/Kg, 5 min post dosing, individual mice M1-M3, 4 mg/kg): 17200 ng/mL and 17700 ng/mL
Plasma concentration, IV Time 0.250 h (IV 4 mg/Kg, 0.250 h post dosing, individual mice M1-M3, 4 mg/kg): 10200 ng/mL and 12700 ng/mL
Plasma concentration, IV Time 0.500 h (IV 4 mg/Kg, 0.500 h post dosing, individual mice M1-M3, 4 mg/kg): 9420 ng/mL and 10500 ng/mL
Plasma concentration, IV Time 1.00 h (IV 4 mg/Kg, 1.00 h post dosing, individual mice M1-M3, 4 mg/kg): 7730 ng/mL and 8230 ng/mL
Plasma concentration, IV Time 2.00 h (IV 4 mg/Kg, 2.00 h post dosing, individual mice M1-M3, 4 mg/kg): 6000 ng/mL and 5010 ng/mL
Plasma concentration, IV Time 4.00 h (IV 4 mg/Kg, 4.00 h post dosing, individual mice M1-M3, 4 mg/kg): 2390 ng/mL and 2130 ng/mL
Plasma concentration, IV Time 8.00 h (IV 4 mg/Kg, 8.00 h post dosing, individual mice M1-M3, 4 mg/kg): 843 ng/mL and 480 ng/mL
Plasma concentration, IV Time 24.0 h (IV 4 mg/Kg, 24.0 h post dosing, individual mice M1-M3, 4 mg/kg): 2.33 ng/mL
Tlast (IV 4 mg/Kg, individual mice M1-M3): 24.0 h
AUC0-inf [1]: 33.496 µg·h/mL and 30.758 µg·h/mL
AUC0-last [1]: 33.489 µg·h/mL and 30.751 µg·h/mL
AUCExtra [1]: 0.0226% and 0.0198% and 0.0224%
AUMCExtra [1]: 0.219% and 0.187% and 0.251%
C0 [1]: 22332 ng/mL and 20894 ng/mL
Cl [1]: 1.99 mL/min/kg and 2.17 mL/min/kg
MRT0-inf [1]: 2.84 h and 2.41 h
MRT0-last [1]: 2.83 h and 2.40 h
T1/2 [1]: 1.97 h and 2.05 h
Vdss [1]: 0.339 L/kg and 0.313 L/kg
AUCExtra, Mean IV (IV 4 mg/Kg, mean of 3 mice): 0.0216%
AUMCExtra, Mean IV (IV 4 mg/Kg, mean of 3 mice): 0.219%
C0, Mean IV (IV 4 mg/Kg, mean of 3 mice): 21974 ng/mL
Tlast, Mean IV (IV 4 mg/Kg, mean of 3 mice): 24.0 h
bioavailability (PO 20 mg/Kg vs IV 4 mg/Kg, Mean PO): 71.0%
Plasma concentration, PO Time 0.250 h (PO 20 mg/Kg, 0.250 h post dosing, individual mice M4-M6, 20 mg/kg): 21900 ng/mL and 29000 ng/mL and 48900 ng/mL
Plasma concentration, PO Time 0.500 h (PO 20 mg/Kg, 0.500 h post dosing, individual mice M4-M6, 20 mg/kg): 34100 ng/mL and 35800 ng/mL
Plasma concentration, PO Time 1.00 h (PO 20 mg/Kg, 1.00 h post dosing, individual mice M4-M6, 20 mg/kg): 33700 ng/mL and 37000 ng/mL
Plasma concentration, PO Time 2.00 h (PO 20 mg/Kg, 2.00 h post dosing, individual mice M4-M6, 20 mg/kg): 22500 ng/mL and 26200 ng/mL
Plasma concentration, PO Time 4.00 h (PO 20 mg/Kg, 4.00 h post dosing, individual mice M4-M6, 20 mg/kg): 13000 ng/mL and 10500 ng/mL
Plasma concentration, PO Time 8.00 h (PO 20 mg/Kg, 8.00 h post dosing, individual mice M4-M6, 20 mg/kg): 2360 ng/mL and 4670 ng/mL
Plasma concentration, PO Time 24.0 h (PO 20 mg/Kg, 24.0 h post dosing, individual mice M4-M6, 20 mg/kg): 60.7 ng/mL and 17.4 ng/mL and 39.3 ng/mL
Tlast (PO 20 mg/Kg, individual mice M4-M6): 24.0 h
AUC0-inf [2]: 123.452 µg·h/mL and 144.868 µg·h/mL
AUC0-last [2]: 123.399 µg·h/mL and 144.734 µg·h/mL
AUCExtra [2]: 0.216% and 0.0429% and 0.0929%
AUMCExtra [2]: 1.40% and 0.376% and 0.730%
Cmax [2]: 21900 ng/mL and 34100 ng/mL and 48900 ng/mL
MRT0-last [2]: 3.07 h and 3.47 h
T1/2 [2]: 2.11 h and 2.37 h
Tmax [2]: 0.500 h
AUCExtra, Mean PO (PO 20 mg/Kg, mean of 3 mice): 0.117%
AUMCExtra, Mean PO (PO 20 mg/Kg, mean of 3 mice): 0.835%
Tlast, Mean PO (PO 20 mg/Kg, mean of 3 mice): 24.0 h

Source: patent US10538487B2, “Sulfonylureas and related compounds and use of same” (priority 2015, dated 2020)
